# pIC50: −log10 of the molar value. Ends that are not written are not given here. Peptide text beside a SMILES is read from it.
# Columns and labels:
# [1] = test system: CD8+ enriched human donor PBMC; assay type: cell-based
# [2] = molecular target: HLA-A*3301 (Homo sapiens, UniProt P04439, A270S/D185E/E176V/E277Q/E87N/F33T/G231S/H175R/I121M/I218V/I322F/K168Q/K210R/L300P/L318F/M331R/P217A/Q86R/Q94H/R138Q/T323A/T345S/T97I/V358M/Y195H); assay: biochemical; assay type: binding
# [3] = molecular target: HLA-A*0301 (Homo sapiens, UniProt P04439); assay: biochemical; assay type: binding
# [4] = molecular target: HLA-A*6801 (Homo sapiens, UniProt P04439, A269V/D185E/E176V/E277Q/E87N/F33Y/G231S/I121M/I166T/I218V/L180W/L300P/L318F/N151K/P208A/P217A/Q86R/R169H/T345S); assay: biochemical; assay type: binding
# [5] = molecular target: HLA-A*1101 (Homo sapiens, UniProt P04439, A114D/D185E/E176A/F33Y/L180Q/S129P/T187R); assay: biochemical; assay type: binding
# [6] = molecular target: HLA-A*3101 (Homo sapiens, UniProt P04439, A270S/D185E/E176V/E277Q/F33T/G231S/G80R/H175R/I121M/I218V/I322F/K168Q/L300P/L318F/M331R/P217A/Q94H/R138Q/T323A/T345S/T97I/V358M); assay: biochemical; assay type: binding
# [7] = molecular target: HLA-A*0206 (Homo sapiens, UniProt P04439, D140Y/D185E/D98H/E176V/E277Q/F33Y/G131W/G231S/I119V/I121R/I166T/I218V/L300P/L318F/N151K/N90K/P208A/P217A/Q86G/Q94H/R138H/R169H/T345S); assay: biochemical; assay type: binding
# [8] = molecular target: HLA-A*0203 (Homo sapiens, UniProt P04439, A173T/D140Y/D185E/D98H/E277Q/G131W/G231S/I119V/I121R/I166T/I218V/L180W/L300P/L318F/N151K/N90K/P208A/P217A/Q86G/Q94H/R138H/R169H/T345S); assay: biochemical; assay type: binding
# [9] = molecular target: HLA-A*0201 (Homo sapiens, UniProt P04439, D140Y/D185E/D98H/E176V/E277Q/G131W/G231S/I119V/I121R/I166T/I218V/L300P/L318F/N151K/N90K/P208A/P217A/Q86G/Q94H/R138H/R169H/T345S); assay: biochemical; assay type: binding
# [10] = molecular target: HLA-A*0202 (Homo sapiens, UniProt P04439, D140Y/D185E/D98H/E176V/E277Q/G131W/G231S/I119L/I121R/I166T/I218V/L180W/L300P/L318F/N151K/N90K/P208A/P217A/Q67R/Q86G/Q94H/R138H/R169H/T345S); assay: biochemical; assay type: binding
# [11] = molecular target: HLA-A*6802 (Homo sapiens, UniProt P04439, A269V/D140Y/D185E/E176V/E277Q/E87N/F33Y/G231S/I121R/I166T/I218V/L180W/L300P/L318F/N151K/P208A/P217A/Q86R/R138H/R169H/S129P/T345S/V36M); assay: biochemical; assay type: binding
# [12] = molecular target: HLA-A*2301 (Homo sapiens, UniProt P04439, D101N/D140Y/D185E/E176V/E190D/F33S/G103R/G107R/H175R/I119L/I121M/I306V/K168Q/K335N/L105A/L300P/N151K/N90K/P307H/Q86E/Q94H/R106L/R138H/R89G/T104I/T345S/V100E/W191G/Y123F); assay: biochemical; assay type: binding
# [13] = molecular target: HLA-A*2402 (Homo sapiens, UniProt P04439, D101N/D140Y/D185E/E176V/E190D/F33S/G103R/G107R/I119L/I121M/I306V/K335N/L105A/L180Q/L300P/N151K/N90K/Q86E/Q94H/R106L/R138H/R89G/T104I/T345S/V100E/W191G/Y123F); assay: biochemical; assay type: binding
# [14] = molecular target: HLA-A*3002 (Homo sapiens, UniProt P04439, D101N/D140H/D185E/E176R/F33S/G80R/H175R/K168Q/Q94H/R138E/R41S/V100E); assay: biochemical; assay type: binding
# [15] = molecular target: HLA-A*2902 (Homo sapiens, UniProt P04439, A270S/D101N/D185E/E176V/E277Q/E87Q/F33T/G231S/H175R/I121M/I218V/I322F/K168Q/L300P/L318F/M331R/P208A/P217A/Q86L/T323A/T345S/V100A/V358M); assay: biochemical; assay type: binding
# [16] = molecular target: HLA-B*4501 (Homo sapiens, UniProt P01889, A329T/A65T/A93T/A95T/C349S/D138N/D201E/D98Y/E176V/E187L/E204Q/E69K/H137Y/K202T/L119W/N87E/Q56L/Q94N/R155S/R180D/S121R/S35A/S48T/V127L/V306I/V36M/W191S/Y140L/Y33H/Y91S); assay: biochemical; assay type: binding
# [17] = molecular target: HLA-B*4402 (Homo sapiens, UniProt P01889, A223V/A65T/A93T/A95T/D201E/D98Y/E176V/E187L/E204Q/E69K/G107R/H137Y/K202T/L105A/L119I/N104T/N87E/Q56L/Q94N/R106L/R155S/R180D/S101N/S121R/S35A/S48T/T118I/V36M/W191S/Y140D/Y91S); assay: biochemical; assay type: binding
# [18] = molecular target: HLA-B*4403 (Homo sapiens, UniProt P01889, A223V/A65T/A93T/A95T/D201E/D98Y/E176V/E187L/E204Q/E69K/G107R/H137Y/K202T/L105A/L119I/N104T/N87E/Q56L/Q94N/R106L/R155S/R180L/S101N/S121R/S35A/S48T/T118I/V36M/W191S/Y140D/Y91S); assay: biochemical; assay type: binding
# [19] = molecular target: HLA-B*4001 (Homo sapiens, UniProt P01889, A65T/A93T/A95T/D138N/D98Y/E176V/E69K/N87E/Q56L/Q94N/R180L/S121R/S35A/S48T/T167S/V36M/W171L/Y33H/Y91S); assay: biochemical; assay type: binding
# [20] = molecular target: HLA-B*1801 (Homo sapiens, UniProt P01889, A329T/A93T/A95T/C349S/D201E/D54G/D98Y/E176V/E187T/E204Q/E69T/K202T/Q94N/R155S/R180L/S121R/V306I/Y140S/Y195H/Y33H/Y91S); assay: biochemical; assay type: binding
# [21] = molecular target: HLA-B*4002 (Homo sapiens, UniProt P01889, A65T/A93T/A95T/D138N/D201E/D98Y/E176V/E204Q/E69K/K202T/N87E/Q56L/Q94N/R180L/S48T/Y33H/Y91S); assay: biochemical; assay type: binding
molecule,measurement,setting,value
CC(C)C[C@H](NC(=O)[C@H](CS)NC(=O)[C@H](CO)NC(=O)[C@@H](N)CCCCN)C(=O)N1CCC[C@H]1C(=O)N[C@@H](C)C(=O)N[C@@H](CS)C(=O)N[C@H](C(=O)N[C@@H](Cc1ccc(O)cc1)C(=O)O)C(C)C [NP.273] (H-KSCLPACVY-OH; N-terminus and C-terminus assumed),IFN-γ responses,[1],590; 1200; 300 SFC/10^6 CD8^+ cells
same,peptide-specific recall response,[1],Significant
CC(C)C[C@H](NC(=O)CNC(=O)[C@H](Cc1ccc(O)cc1)NC(=O)[C@@H](NC(=O)[C@H](CS)NC(=O)[C@H](C)NC(=O)[C@@H]1CCCN1C(=O)[C@H](CC(C)C)NC(=O)[C@@H](N)CS)C(C)C)C(=O)O [NP.275] (H-CLPACVYGL-OH; N-terminus and C-terminus assumed),IFN-γ responses,[1],350; 986; 2200 SFC/10^6 CD8^+ cells
same,peptide-specific recall response,[1],responses induced
ASCMGLIYNR [M1.125],pIC50,[2],6.35
same,pIC50,[3],6.09
same,pIC50,[4],6.41
same,pIC50,[5],7.49
same,pIC50,[6],8.15
FQGRGVFEL [NP.458],pIC50,[7],8.15
same,pIC50,[8],6.51
same,pIC50,[9],6.84
same,pIC50,[10],8.15
same,pIC50,[11],< 5.00
FQVDCFLWHV [NS1.9],pIC50,[7],9.00
same,pIC50,[8],8.52
same,pIC50,[9],8.40
same,pIC50,[10],8.40
same,pIC50,[11],6.66
FYIQMCTEL [NP.39],pIC50,[12],8.10
same,pIC50,[13],7.62
same,pIC50,[14],< 5.00
same,pIC50,[15],5.81
FYRYGFVANF [PB1.496],pIC50,[12],7.89
same,pIC50,[13],7.77
same,pIC50,[14],< 5.00
same,pIC50,[15],6.09
GERQNATEI [NP.17],pIC50,[16],6.52
same,pIC50,[17],< 5.00
same,pIC50,[18],< 5.00
same,pIC50,[19],6.70
same,pIC50,[20],< 5.00
same,pIC50,[21],7.28
GLFGAIAGFI [HA.345],pIC50,[7],5.60
same,pIC50,[8],9.00
same,pIC50,[9],7.39
same,pIC50,[10],9.40
same,pIC50,[11],5.82
GTFEFTSFFY [PB1.488],pIC50,[2],5.27
same,pIC50,[3],7.80
same,pIC50,[4],7.00
same,pIC50,[5],9.00
same,pIC50,[6],6.62
KFLPDLYDYK [PA.104],pIC50,[2],< 5.00
same,pIC50,[3],6.59
same,pIC50,[4],6.29
same,pIC50,[5],7.66
same,pIC50,[6],5.62
